Where “and” joins values, the source holds several entries; their conditions need not be identical. Equal entries are not always repeated.
Key:
P450RAI-1 [1] = target: T1, P450RAI-1 (Homo sapiens, UniProt O43174); experiment: Competitive inhibition of all-trans-RA metabolism in COS-1 cells transfected with pcDNA3.1-P450RAI-1; assay type: cell-based; parameters: expressed in transfected cells; host or cells: COS-1 (African green monkey kidney), transient transfection; details: for IC50: 2 nM [3H]all-trans-RA, 3 hours, aqueous soluble radioactivity, read-out: Interpolated ID50, P450RAI-1; for effectiveness as competitor of P450RAI-1 mediated all-trans-RA metabolism: compared with all-trans-RA
T1 sequence (O43174 1-497): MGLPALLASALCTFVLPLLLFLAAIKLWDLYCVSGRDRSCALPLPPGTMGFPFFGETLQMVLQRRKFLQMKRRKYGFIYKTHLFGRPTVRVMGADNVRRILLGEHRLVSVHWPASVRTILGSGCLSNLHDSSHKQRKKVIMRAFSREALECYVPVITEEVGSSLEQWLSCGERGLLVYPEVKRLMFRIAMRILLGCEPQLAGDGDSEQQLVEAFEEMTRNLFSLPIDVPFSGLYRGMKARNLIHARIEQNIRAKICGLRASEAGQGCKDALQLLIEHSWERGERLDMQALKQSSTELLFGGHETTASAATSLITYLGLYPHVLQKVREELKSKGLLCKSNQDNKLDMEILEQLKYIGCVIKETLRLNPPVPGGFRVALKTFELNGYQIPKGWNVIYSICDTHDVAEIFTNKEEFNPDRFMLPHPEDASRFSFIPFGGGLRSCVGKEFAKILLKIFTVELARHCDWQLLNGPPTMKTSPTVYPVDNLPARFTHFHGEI
Description: (§1) Panels on the right show cells expressing P450RAI-2 with panels on the left showing cells expressing P450RAI-1.
(§2) Exponentially growing cells were plated in triplicate into 6-well plates and transfected with lug of pcDNA3.1-P450RAI-1 or pcDNA3.1-P450RAI-2 using Fugene 6 transfection reagent with 3 ul per sample as described by the manufacturer (Roche Molecular Biochemicals, IN). Cells were maintained in media supplemented with 10% FBS during transfection.
COS-1 cells were transfected with either pcDNA3.1-P450RAI-1 or pcDNA3.1-P450RAI-2 in 6-well tissue culture plates as described above. 48 hours post-transfection cells were harvested, pooled, washed with DMEM medium and replated into duplicate 48-well plates with 5×10^5 cells per well.

P450RAI-2 [2] = target: T2, P450RAI-2 (Homo sapiens, UniProt Q9NR63); experiment: Competitive inhibition of all-trans-RA metabolism in COS-1 cells transfected with pcDNA3.1-P450RAI-2; assay type: cell-based; parameters: The full-length human P450RAI-2 cDNA was cloned into the eukaryotic expression vector pcDNA 3.1; expressed in transfected cells; host or cells: COS-1 (African green monkey kidney), transient transfection; details: for effectiveness as competitor of P450RAI-2 mediated all-trans-RA metabolism: compared with all-trans-RA, COS-1 cells
T2 sequence (Q9NR63 1-512): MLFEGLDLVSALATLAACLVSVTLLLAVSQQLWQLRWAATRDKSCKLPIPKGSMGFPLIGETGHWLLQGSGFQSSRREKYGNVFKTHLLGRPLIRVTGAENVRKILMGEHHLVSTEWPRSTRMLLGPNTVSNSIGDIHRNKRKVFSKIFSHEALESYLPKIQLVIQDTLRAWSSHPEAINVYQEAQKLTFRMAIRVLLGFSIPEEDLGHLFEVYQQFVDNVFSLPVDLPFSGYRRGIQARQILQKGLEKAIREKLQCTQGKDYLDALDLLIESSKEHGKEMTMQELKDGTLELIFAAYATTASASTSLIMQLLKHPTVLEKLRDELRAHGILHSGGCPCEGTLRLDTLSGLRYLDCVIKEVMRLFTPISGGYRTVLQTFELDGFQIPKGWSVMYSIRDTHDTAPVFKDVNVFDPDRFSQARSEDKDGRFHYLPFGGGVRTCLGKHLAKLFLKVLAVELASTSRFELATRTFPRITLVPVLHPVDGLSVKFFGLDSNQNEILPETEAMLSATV
Description: as §1, §2
COS-1 cells were transfected with either pcDNA3.1-P450RAI-1 or pcDNA3.1-P450RAI-2 in 6-well tissue culture plates as described above.

P450RAI-2 expression = P450RAI-2 expression in RAFT and psoriasis biopsy samples (Northern blot, RT-PCR); assay type: cell-based, human
Description: Total RNA aliquots (10 μg) were electrophoresed on a 1.0% formaldehyde-agarose gel and a northern blot performed. The gel was photographed under ultraviolet light and then blotted on Hybond ECL nitrocellulose membrane (Amersham Pharmacia Biotech, UK) and fixed to the membrane by baking at 80° C. for 2 hours under vacuum. […] Three individual cDNA fragments were labeled with α-[^32P]dATP using the Prime-A-Gene Labeling System (Promega, WI). The probes were as follows; P450RAI-1762-1217 bp of SEQ ID NO:13, full length P450RAI-2 SEQ ID NO:4 and a human glyceraldehyde-3-phosphate dehydrogenase (GAPDH) PCR fragment. The blot was hybidized with P450RAI-2, washed two times for 5 minutes in 2×SSPE, 0.1% SDS at room temperature, then washed once at 65° C. for 10 minutes in 1×SSPE, 0.1% SDS and a final wash for 15 minutes at 65° C. in 0.1×SSPE, 0.1% SDS. The blot was exposed at −70° C. for 48 hours to Kodak X-Omat AR film (Eastman Kodak Company, NY). […] The blot was stripped by washing two times for 30 minutes in boiling 0.5% SDS and exposed to film overnight to ensure proper removal of probe. The above protocol was repeated for P450RAI-1 and GAPDH. The P450RAI-1 and GAPDH blots were exposed for 96 and 4 hours respectively.
The final primer concentrations were 45 μM for the P450RAI-1 and P450RAI-2 primers and 11.25 μM for the GAPDH-specific primers. Two separate sets of reactions were performed using the primer sets, P450RAI-1/GAPDH and P450RAI-2/GAPDH. […] The P450RAI-1, P450RAI-2 and GAPDH upstream and downstream amplification primers sets were 5′[…]-3′ (SEQ ID NO: 35) and 5′-[…]-3′ (SEQ ID NO: 36), 5′-[…]-3′ (SEQ ID NO: 37) and 5′-[…]-3′ (SEQ ID NO: 38), 5′-[…]-3′ (SEQ ID NO: 39) and 5′-[…]-3′ (SEQ ID NO: 40) respectively. […] Both the Psoriasis samples show PCR products corresponding to P450RAI-2.

P450RAI-2 transcripts = experiment: Induction of P450RAI-2 mRNA in cultured cell lines (Northern blot, RT-PCR); details: for induction of P450RAI-2 expression, MCF-7 cells: 10^-6 M retinoid
[3] = Conversion of [3H]all-trans-RA in controls (media alone, pcDNA3.1 transfected COS-1 cells)
P450RAI-2 [4] = target: T2, P450RAI-2; experiment: Metabolism of [3H]all-trans-RA to aqueous-soluble products in COS-1 cells transfected with pcDNA3.1-P450RAI-2; parameters: dose or concentration left out as unconfirmed; details: radiolabelled all-trans-retinoic acid
P450RAI-1 [5] = target: T1, P450RAI-1; experiment: Metabolism of [3H]all-trans-RA to aqueous-soluble products in COS-1 cells transfected with pcDNA3.1-P450RAI-1; details: 100 mM (so in the source) radiolabelled all-trans-retinoic acid

CC1=C(/C=C/C(C)=C/C=C/C(C)=C/CO)C(C)(C)CCC1 [Retinol, retinol]
IC50 (P450RAI-1 [1]): > 100000 nM
effectiveness as competitor of P450RAI-1 mediated all-trans-RA metabolism (P450RAI-1 [1]): less effective
effectiveness as competitor of P450RAI-1 mediated all-trans-RA metabolism (P450RAI-1 [1]; listed as retinol): very poor competitors
effectiveness as competitor of P450RAI-2 mediated all-trans-RA metabolism (P450RAI-2 [2]): less effective
effectiveness as competitor of P450RAI-2 mediated all-trans-RA metabolism (P450RAI-2 [2]; listed as retinol): very poor competitors
IC50 (P450RAI-2 [2]; read-out: Interpolated ID50, P450RAI-2): > 100000 nM

CC1=C(/C=C/C(C)=C/C=C/C(C)=C/C=O)C(C)(C)CCC1 [retinal]
effectiveness as competitor of P450RAI-1 mediated all-trans-RA metabolism (P450RAI-1 [1]): less effective
effectiveness as competitor of P450RAI-1 mediated all-trans-RA metabolism (P450RAI-1 [1]; listed as retinaldehyde): very poor competitors
effectiveness as competitor of P450RAI-2 mediated all-trans-RA metabolism (P450RAI-2 [2]): less effective
effectiveness as competitor of P450RAI-2 mediated all-trans-RA metabolism (P450RAI-2 [2]; listed as retinaldehyde): very poor competitors

CCOC(=O)c1ccc(C#Cc2ccc3c(c2)C(C)(C)CCS3)nc1 [Tazarotene]
P450RAI-2 expression, Day14 Psoriasis Biopsy sample (P450RAI-2 expression; Northern blot): expressed
P450RAI-2 expression, RAFT sample (P450RAI-2 expression; Northern blot): induced
P450RAI-2 expression, RAFT sample (P450RAI-2 expression; RT-PCR): shows expression

CC1=C(/C=C/C(C)=C/C=C/C(C)=C\C(=O)O)C(C)(C)CCC1 [13-cis-RA, 13-cis retinoic acid]
effectiveness as competitor of P450RAI-1 mediated all-trans-RA metabolism (P450RAI-1 [1]): less effective
induction of P450RAI-2 expression, MCF-7 cells (P450RAI-2 transcripts; Northern blot, 12 hours): induced
effectiveness as competitor of P450RAI-2 mediated all-trans-RA metabolism (P450RAI-2 [2]): less effective

CC1=C(/C=C/C(C)=C\C=C\C(C)=C\C(=O)O)C(C)(C)CCC1 [9-cis-RA, 9-cis retinoic acid]
effectiveness as competitor of P450RAI-1 mediated all-trans-RA metabolism (P450RAI-1 [1]): less effective
induction of P450RAI-2 expression, MCF-7 cells (P450RAI-2 transcripts; Northern blot, 12 hours): not clear
effectiveness as competitor of P450RAI-2 mediated all-trans-RA metabolism (P450RAI-2 [2]): less effective

CC1=C(/C=C/C(C)=C/C=C/C(C)=C/C(=O)O)C(C)(C)CCC1 [All-trans-RA, all-trans retinoic acid]
IC50 (P450RAI-1 [1]): ~2500 nM and 2500 nM
time to induction of P450RAI-2 transcripts (P450RAI-2 transcripts; HPK1a-ras cells, RT-PCR, post-addition of inducer): ≤ 2 h
induction of P450RAI-2 transcripts, HPK1a-ras, HeLa and MCF-7 (P450RAI-2 transcripts; Northern blot, 1 μM, 12 hours): show induction
induction of P450RAI-2 expression, MCF-7 cells (P450RAI-2 transcripts; Northern blot, 12 hours): induced
induction of P450RAI-2 expression, HPK1A-RAS keratinocytes (P450RAI-2 transcripts; Northern blot, 10^-6 M, 12 hours): inducible
inducible expression of P450RAI-2, MCF-7, HeLa, HPK1a-ras and WT-E (P450RAI-2 transcripts; RT-PCR, 1 μM): evidence for inducible expression
P450RAI-2 transcripts in NB4, V79 and SK-Luci-6 cells (P450RAI-2 transcripts; RT-PCR, vehicle or all-trans-RA treated): little or no perceptible transcripts
conversion of substrate to aqueous radioactivity, pcDNA3.1 transfected cells ([3]; COS-1 cells with empty vector pcDNA3.1, 3 hours): 2.7±0.2%
conversion of substrate to aqueous radioactivity, media alone ([3]; media alone control, 3 hours): 1.6±0.1%
all-trans-RA substrate converted to aqueous-soluble products, P450RAI-2 transfected cells (P450RAI-2 [4]): 34±0.2%
all-trans-RA substrate converted to aqueous-soluble products, P450RAI-1 transfected cells (P450RAI-1 [5]): 26±1.5%

— patent US7537919B2, “Cytochrome P450RAI-2 and related proteins” (Cytochroma Inc., priority 1999, dated 2009)
